“And” between values parts separate entries of the source, which are not always exact repeats. Equal entries are not always repeated.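 The compound was tested at five concentrations on cells cultured in 96-well plates, with a 48-hour exposure period. Abbreviation: GI50, concentration required for 50% inhibition of growth. TGI: concentration producing complete growth inhibition.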 *1 amine or outer side, *2 acyl side, *3 side chain or, on linkers, in order; H or OH if unused. Where a SMILES comes first, the peptide text is derived from it. [ ]: non-standard residue; d: D form. The star is where a group is joined. X31 = CC(=O)N(C)SCC(N[*:1])C(=O)[*:2]; Fmoc = O=C(OCC1c2ccccc2-c2ccccc21)*; For = O=C*
Experiments:
Assay in all cases: growth of human tumour cells (NCI), 48 h
[1] = tested on: SF-539 CNS
[2] = tested on: EKVX NSCLC
[3] = tested on: BT-549 breast

| Structure (SMILES) | TGI [1] | TGI [2] | TGI [3] | GI50 [3] |
| --- | --- | --- | --- | --- |
| CC(=O)NC1C(OCc2ccccc2)OC(CO)C(O)C1OCC(=O)N1CCCC1C(=O)NC(CCC(=O)NCCCCCNc1c2ccccc2nc2cccc([N+](=O)[O-])c12)C(N)=O (stereo not drawn) | 0.097 µM | 0.633 µM | – | – |
| CCOC(=O)NC(=S)NC(C)c1ccccc1 (stereo not drawn) | – | > 100 µM | > 100 µM | – |
| C=CCC1C2CCC(O[Si](C(C)C)(C(C)C)C(C)C)(C(C(=O)OC)C2)C1O (stereo not drawn) | > 100 µM | > 100 µM | – | – |
| CSc1nc(C)c(CCCl)c(Cl)n1 | > 100 µM | > 100 µM | > 100 µM | – |
| Nc1cc(N)c(N=Nc2cccc3c(S(=O)(=O)O)cccc23)cc1N=Nc1cc([N+](=O)[O-])ccc1O | > 100 µM | > 100 µM | > 100 µM | – |
| N#Cc1c(N2CCOCC2)ncn(-c2ccc(Cl)cc2)c1=O | > 100 µM | > 100 µM | > 100 µM | – |
| CC(=O)C1C(=O)C(=O)N(c2ccc(Br)cc2)C1=O (stereo not drawn) | > 100 µM | > 100 µM | > 100 µM | – |
| CN(C)C(=O)Oc1ccc(C(=S)Nc2ccccc2)cc1Br | > 100 µM | > 100 µM | 68.7 µM | – |
| C#CC(O)Cc1ccc(OC)c2occc12 (stereo not drawn) | > 100 µM | > 100 µM | > 100 µM | – |
| Cc1ccc(-n2cc(-c3ccc(Cl)cc3)c3c2N=CN2NC(c4cccs4)=NC32)cc1 (stereo not drawn) | 45.2 µM | 57.1 µM | 53.7 µM | – |
| Cc1[nH]c2ccccc2c1C1=CC(=O)N(c2ccccc2)C1=O | 27.1 µM | 83.9 µM | > 100 µM | – |
| CCN1C(=O)CS/C1=N\NC(=O)CSc1nc2ccccc2c(=O)n1CC | > 100 µM | > 100 µM | > 100 µM | – |
| NCCC1([N+](=O)[O-])CCNCC1 | > 100 µM | > 100 µM | > 100 µM | – |
| O=C(O)CCc1nc2cc3ccccc3cc2[nH]c1=O | > 100 µM | > 100 µM | > 100 µM | – |
| Cc1nc(Nc2nc3ccccc3[nH]2)[nH]c(=O)c1CCO | > 65.3 µM | > 100 µM | > 100 µM | – |
| O=c1c(Sc2ncccn2)c(Sc2ncccn2)cnn1CCl | 4 µM | 8.65 µM | 31 µM | – |
| CCc1n[nH]c(=S)n1/N=C\c1ccc(-c2ccccc2[N+](=O)[O-])o1 | > 100 µM | > 100 µM | > 100 µM | – |
| Cc1ccc(Nc2cn(COCc3ccccc3)c(=O)[nH]c2=O)cc1 | – | > 100 µM | 82 µM | – |
| COc1nc(C)nc2c1ncn2Cc1ccccc1 | > 100 µM | > 100 µM | – | – |
| COc1cc2c(cc1OCCCCN1CCN(CCCCOc3cc4c(cc3OC)C(=O)N3CCC[C@H]3C=N4)CC1)N=C[C@@H]1CCCN1C2=O | 0.0692 µM | 7.85 µM | 0.843 µM | – |

| Structure (SMILES) | TGI [1] | TGI [2] | TGI [3] | GI50 [3] |
| --- | --- | --- | --- | --- |
| COC1C(OC(N)=O)C(O)C(Oc2ccc3c(O)c(NC(=O)c4ccc(O)c(CC=C(C)C)c4)c(=O)oc3c2C)OC1(C)C (stereo not drawn) | > 100 µM | > 100 µM | > 100 µM | – |
| O=[N+]([O-])c1ccc2[nH]c(O)c(N=NC(=S)Nc3ccccc3)c2c1 | 27.6 µM | 9.2 µM | 19.9 µM | – |
| CC(Cc1ccc2c(c1)OCO2)N(C)C(=O)C1=CCN(C)CC1 (stereo not drawn) | – | > 100 µM | > 100 µM | – |
| CCOP(=O)(OCC)C(=C1C=C(C(C)(C)C)C(=O)C(C(C)(C)C)=C1)P(=O)(OCC)OCC | > 10 µM | > 10 µM | 5.16 µM | – |
| COC(=O)C1(C)OC(C)=NC1(C(=O)OC)C(=O)OC (stereo not drawn) | > 100 µM | > 100 µM | > 31.6 µM | – |
| C[N+]12CCCCC1C(CN1C(=O)c3ccccc3C1=O)CCC2 (stereo not drawn) | > 100 µM | > 100 µM | > 100 µM | – |
| COC(=O)CNCC1OC2OC(C)(C)OC2C1N=[N+]=[N-] (stereo not drawn) | > 100 µM | > 100 µM | > 100 µM | – |
| CC(=O)NC(CO)C(=O)NC(Cc1ccc(O)cc1)C(=O)NCC(N)=O (stereo not drawn) (Ac-Ser-Tyr-Gly-NH2; configuration not given here) | > 100 µM | > 100 µM | > 100 µM | – |
| COc1cccc(C(=O)N[C@@H]2[C@H](O)[C@@H](CO)O[C@H]2n2cnc3c(N)ncnc32)c1 | > 100 µM | > 100 µM | > 100 µM | – |
| COC(=O)C1=NN2c3ccccc3CN([C@@H](C)c3ccccc3)C(=O)[C@H]2[C@@H]1C | > 100 µM | > 100 µM | 95.3 µM | – |
| N#CCN(Cc1ccccc1)[C@@H]1CCC[C@]1(O)C#Cc1ccc2c(c1)OCO2 | 42.3 µM | 55.5 µM | – | – |
| O=C1/C(=C/c2ccc(Cl)cc2)Sc2scc(-c3cccc([N+](=O)[O-])c3)[n+]21 | 8.11 µM | 13.9 µM | 6.37 µM | – |
| C=C(CC)C[C@@H]1C[C@]2(C(=O)OC)c3[nH]c4ccccc4c3CCN2C1=O | 30.9 µM | 85.5 µM | 43.7 µM | – |
| C=CC[C@H]1[C@H](O[Si](C)(C)C(C)(C)C)C=CC(=O)[C@@H]1CC(=O)OCC | 30.8 µM | 24.2 µM | 30.3 µM | – |
| CN1CCCC(C(=O)OCC(=O)C2(O)CCC3C4CCC5=CC(=O)CCC5(C)C4C(O)CC32C)C1 (stereo not drawn) | 4.38 µM | 67.1 µM | 33.6 µM | – |
| CC(C)(CN)SCc1ccccc1 | > 100 µM | > 100 µM | > 100 µM | – |
| CC(=O)N(C)SCC(NC(=O)C(Cc1ccccc1)NC(=O)OCC1c2ccccc2-c2ccccc21)C(=O)NC(Cc1ccccc1)C(=O)NC(Cc1cn(C=O)c2ccccc12)C(=O)NC(CCCCNC(=O)OCC1c2ccccc2-c2ccccc21)C(=O)NC(C(=O)NC(CSN(C)C(C)=O)C(=O)NC(C(N)=O)C(C)O)C(C)O (stereo not drawn) (Fmoc-F[X31]FW(For)K(Fmoc)T[X31]T-NH2; configuration not given here) | > 100 µM | > 100 µM | > 100 µM | – |
| CC(C)OP(=O)(OC(C)C)C(Nc1cccc(C(F)(F)F)c1)c1ccccc1 (stereo not drawn) | > 100 µM | > 100 µM | > 100 µM | – |
| CC/C=C/C(/C=C/C[C@]1(CC)C[C@H](CC)[C@H](CC(=O)O)OO1)CC (stereo partly drawn) | 4.07 µM | 3.77 µM | 18.3 µM | – |
| CCSC12CC3c4cccc5c4C(CN5C(=O)c4ccccc4)CC3(O1)N(C)C2=O (stereo not drawn) | > 100 µM | 83.4 µM | 80.7 µM | – |

| Structure (SMILES) | TGI [1] | TGI [2] | TGI [3] | GI50 [3] |
| --- | --- | --- | --- | --- |
| CNc1ncnc2c1cnn2Cc1cn(CCCCO)nn1 | > 100 µM | > 100 µM | > 100 µM | – |
| CC1=C(C)C(=O)C(C2=C(C3=CC(=O)C(C)=C(C)C3=O)C(=O)c3ccccc3C2=O)=CC1=O | 10.5 µM | 5.81 µM | 7.16 µM | – |
| Cc1cn2c(/C=C3/C(=O)Nc4ccccc43)c(C)nc2s1 | 7.83 µM | > 100 µM | > 100 µM | – |
| COc1ccc(N2C(=O)C3c4[nH]c5ccc(OCc6ccccc6)cc5c4C4CCC(C(C)C)CC4C3C2=O)cc1 (stereo not drawn) | 23.5 µM | > 100 µM | > 60.4 µM | – |
| CC(C)(C)N=c1n(C(C)(C)C)oc(=O)n1-c1ccccc1 | > 50 µM | > 50 µM | – | – |
| O=C1Nc2ccc(Br)cc2/C1=C/C(=O)c1ccccc1 | 13 µM | 28.6 µM | 24.6 µM | – |
| Cc1cc(-c2ccc(C(=O)C(c3ccccc3)(c3ccccc3)c3ccccc3)[nH]2)on1 | > 100 µM | 39.9 µM | 45.8 µM | – |
| O=C1C(NS(=O)(=O)c2ccccc2)=C(N(Cc2ccccc2)Cc2ccccc2)C(=O)c2ccccc21 | > 100 µM | > 100 µM | > 100 µM | – |
| Cn1nc(C(=O)N2CC(CCl)c3c2cc([N+](=O)[O-])c2ccccc32)cc1NC(=O)Nc1cc(C(=O)N2CC(CCl)c3c2cc([N+](=O)[O-])c2ccccc32)nn1C (stereo not drawn) | 70.2 µM | > 100 µM | > 100 µM | – |
| S=C(Nc1cccc(C2(N3CCCCC3)CCCCC2)c1)Nc1cccc(C2(N3CCCCC3)CCCCC2)c1 | 31.3 µM | > 100 µM | > 100 µM | – |
| OC1(c2ccc3ccccc3c2)c2c(c3ccccc3c3ccccc23)C2=NCCN21 (stereo not drawn) | 13.1 µM | 36.3 µM | > 37.3 µM | – |
| CCCCCCC(=O)OC[n+]1cccc(-c2c(COC(=O)NC(C)C)c(COC(=O)NC(C)C)c3n2CCC3)c1 | > 75 µM | > 100 µM | > 96.4 µM | – |
| c1cc(C[S+]2CCCC2)oc1C[S+]1CCCC1 | > 100 µM | > 100 µM | > 100 µM | – |
| Cc1ccc(-n2cc(-c3ccc(Cl)cc3)c(C#N)c2N)cc1 | 30.9 µM | 30.5 µM | 32.1 µM | – |
| CCCN(CCC)C(=O)c1c(Cl)c2cccnc2n2c(C)cnc12 | > 100 µM | > 100 µM | – | – |
| c1ccc(CSC(SCc2ccccc2)c2ccc3c(c2)OCO3)cc1 | > 10 µM | > 10 µM | – | – |
| COc1ccccc1Cn1[nH]c(=O)c2cc([N+](=O)[O-])ccc21 | > 100 µM | > 100 µM | – | – |
| CC(Nc1n[nH]c(=O)c2c1nnn2Cc1ccccc1)c1ccccc1 (stereo not drawn) | – | > 100 µM | > 100 µM | > 100 µM and 37.5 µM |

From PubChem BioAssay (NCI)
